From patent publication US20230219898A1, “COMPOUNDS AND METHODS FOR BLOCKING APOPTOSIS AND INDUCING AUTOPHAGY” (President and Fellows of Harvard College, priority 2020, published 2023)
Like-named read-outs stand apart in the source and are kept apart here.

Legend:
[1] = tested on: mTOR; assay: mTOR signalling immunoblotting in MEFs; type: cell-based, mouse; details: 10 μM
From the text: Cell lysates analyzed by immunoblotting using indicated antibodies.

[2] = molecular target: T1, TRADD-N (Homo sapiens, UniProt Q15628); assay: STD-NMR binding to TRADD-N; details: 1 mM compound, 13 μM TRADD-N
T1 construct: expression constructs encoding Flag-TRADD-N(1-179) and HA-TRADD-C(180-312); His (N); made in house
T1 sequence (Q15628 1-179): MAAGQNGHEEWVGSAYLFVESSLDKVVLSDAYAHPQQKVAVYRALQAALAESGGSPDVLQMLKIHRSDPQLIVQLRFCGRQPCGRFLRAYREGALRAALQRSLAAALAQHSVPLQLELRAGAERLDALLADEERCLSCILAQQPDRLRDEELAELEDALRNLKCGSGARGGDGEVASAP
Procedure: The on-resonance irradiation of TRADD-N was performed at a chemical shift of −0.5 ppm, whereas the off-resonance irradiation was conducted at 37 ppm. Spectra were acquired using the following parameters: spectral window of 6.4 kHz, number of scans at 320, acquisition time of 2 s, and repetition time of 3 s. The decrease in signal intensity in STD spectrum, resulting from the transfer of saturation from the protein to the ligand, is evaluated by subtracting the on-resonance spectrum from the off-resonance spectrum. This subtraction yields a positive signal from a bound ligand. The asterisks indicate the signals of the compounds.
This saturation quickly propagates throughout the protein by spin diffusion and is transferred to the ligand, which only occurs if it is bound, leading to reduced intensities of the ligand. The STD spectra were acquired on a 400 MHz spectrometer (ICCB-19 and Apt-1) or 800 MHz spectrometer (ICCB-19i). The samples for STD NMR were prepared as 13 μM TRADD-N or TRADD-N(G121A) with 1 mM Apt-1, ICCB-19 or ICCB-19i in 0.5 mL of PBS in D2O (10%). […] The decrease in signal intensity in STD spectrum, resulting from the transfer of saturation from the protein to the ligand, is evaluated by subtracting the on-resonance spectrum from the off-resonance spectrum.

[3] = tested on: H4-GFP-LC3 cells; assay: Autophagy induction, GFP-LC3 puncta and LC3II immunoblotting; type: cell-based; details: 10 μM, 6 h (zVAD.fmk 20 μM)
Procedure: Mean ±s.e.m. (n=5). One-way ANOVA, post hoc Dunnett's test.
Autophagy was determined by LC3II levels using immunoblotting. SE=shorter exposure, LE=longer exposure.
Autophagy was measured by LC3II induction and p62 reduction by immunoblotting. The levels of LC3II in cells treated with both Apt-1 and NH4Cl, the latter of which inhibits lysosome, were higher than that treated with either Apt-1 or NH4Cl alone. Thus, ICCB-19/Apt-1, but not ICCB-19i, induce autophagic flux. Mean ±s.e.m. from technical triplicates (n=3), representative of 3 independent experiments. Two-tailed t-test. **P=0.0037.
Levels of LC3II determined by immunoblotting.
Cells were seeded at 2.5×10^4 cells per well on poly-L-lysine coated glass cover slips and transfected as described. Cells were fixed in 4% paraformaldehyde, followed by permeabilization with 0.1% Triton X-100. Nuclei were stained using DAPI (Sigma). Cells expressing GFP or RFP-fusion proteins were imaged with an Olympus Fluoview FV1000 confocal microscope (Olympus) using a 40×objective. For GFP-LC3 and DsRed-FYVE puncta quantification, the average spot intensity in 1000 cells from each indicated sample was determined. Images were processed using ImageJ and Photoshop CC. Concentration of compounds used to induce or block autophagy: 10 μM (Apt-1, ICCB-19, ICCB-19i or Spautin-1), for 6 h or as indicated.

[4] = tested on: MEFs; assay: RDA in MEFs induced by mTNFα and 5Z-7-Oxozeaenol, cell survival; type: cell-based, mouse; details: for protection against RDA models: 10 μM; for IC50: Mus musculus, FIG. 5c, mTNFα 1 ng/mL, 5Z-7-Oxozeaenol 0.5 μM, 8 h, read-out: IC50 of inhibition of RDA
Procedure: The rates of cell death were measured in triplicate or quadruplicate in a 96-well or 384-well plate by using SYTOX Green Nucleic Acid Stain (Invitrogen) or ToxiLight Non-destructive Cytotoxicity BioAssay Kit (Lonza). The intensity of luminescence was determined in an EnSpire Multimode Plate Reader (PerkinElmer). Cytotoxicity is expressed as percentages of cell death per well after deducting the background signal in non-induced cells and compared to that of the maximal cell death with 100% Lysis Reagent. The rates of cell viability were determined by using CellTiter-Glo Luminescent Cell Viability Assay (Promega) following the manufacturer's protocol and the results are expressed as percentages of luminescence intensity per well after deducting the background signal in blank well and compared to that of the viability in the non-treated wells. Concentration of drugs used for inducing or inhibiting cell death, mTNFα: 1 ng/ml; 5Z-7-Oxozeaenol: 0.5 μM; Velcade: 50 nM; Apt-1/ICCB-19/ICCB-19i/Nec-1s: 10 μM.

[5] = tested on: Murine RGC5(661W) cells; assay: RIPK1-dependent apoptosis (RDA) of RGC5 cells induced by TNFα plus 5Z-7-Oxozeaenol; type: cell-based; details: Mus musculus, 21 hours
Procedure: Murine RGC5(661W) cells were seeded in 96-well plates (4000 cells per well). Different concentrations of the compounds were added one hour prior to TNFα treatment, followed by the addition of 0.5 ng/ml TNFα plus 0.5 μM 5Z-7-Oxozeaenol to induce RIPK1-dependent apoptosis (RDA). After incubation for 21 hours, cell viability was measured by CellTiter-Glo Luminescent Cell Viability Assay.

[6] = Table 3, 0.5 ng/ml TNFα plus 0.5 μM 5Z-7-Oxozeaenol, read-out: RGC5 T/5z7 IC50/μM

Compound: CN1CCN=C1SC(C(=O)NC1CCCCCC1)c1ccccc1 (stereo not shown) [Compound 30]
- effect on mTOR [1]: no effect on mTOR
- binding with TRADD-N by STD-NMR [2]: could bind with TRADD-N
- induction of autophagy [3]: effectively induced autophagy
- protection against RDA models [4]: protected against multiple RDA models
- IC50 [4]: ~1000 nM
- IC50 [5, 6]: 1.28 µM

Compound: O=C(CSC1=NCCN1)NC1CCCCCC1 [ICCB-19]
- effect on mTOR [1]: no effect on mTOR
- binding with TRADD-N by STD-NMR [2]: could bind with TRADD-N
- induction of autophagy [3]: effectively induced autophagy
- protection against RDA models [4]: protected against multiple RDA models
- IC50 [4]: ~1000 nM
- IC50 ([5]; Table 2, 0.5 ng/ml TNFα plus 0.5 μM 5Z-7-Oxozeaenol, read-out: RGC5 T/5z7 IC50): 0.18 µM
- IC50 [5, 6]: 2.01 µM
